Assay results taken from patent publication US7566712B2, “Biaryl piperazinyl-pyridine analogues” (Neurogen Corporation, priority 2003, dated 2009).

molecular target: T1, human capsaicin receptor (Homo sapiens, UniProt Q8NER1); test: Calcium mobilization assay, determination of antagonist activity (Example 6); format: cell-based; conditions: determined as described in Example 6 (calcium mobilization, antagonist activity); Table II
T1 construct: pBK-CMV expression construct encoding the full length human capsaicin receptor; expressed in transfected cells
T1 sequence (Q8NER1 whole entry): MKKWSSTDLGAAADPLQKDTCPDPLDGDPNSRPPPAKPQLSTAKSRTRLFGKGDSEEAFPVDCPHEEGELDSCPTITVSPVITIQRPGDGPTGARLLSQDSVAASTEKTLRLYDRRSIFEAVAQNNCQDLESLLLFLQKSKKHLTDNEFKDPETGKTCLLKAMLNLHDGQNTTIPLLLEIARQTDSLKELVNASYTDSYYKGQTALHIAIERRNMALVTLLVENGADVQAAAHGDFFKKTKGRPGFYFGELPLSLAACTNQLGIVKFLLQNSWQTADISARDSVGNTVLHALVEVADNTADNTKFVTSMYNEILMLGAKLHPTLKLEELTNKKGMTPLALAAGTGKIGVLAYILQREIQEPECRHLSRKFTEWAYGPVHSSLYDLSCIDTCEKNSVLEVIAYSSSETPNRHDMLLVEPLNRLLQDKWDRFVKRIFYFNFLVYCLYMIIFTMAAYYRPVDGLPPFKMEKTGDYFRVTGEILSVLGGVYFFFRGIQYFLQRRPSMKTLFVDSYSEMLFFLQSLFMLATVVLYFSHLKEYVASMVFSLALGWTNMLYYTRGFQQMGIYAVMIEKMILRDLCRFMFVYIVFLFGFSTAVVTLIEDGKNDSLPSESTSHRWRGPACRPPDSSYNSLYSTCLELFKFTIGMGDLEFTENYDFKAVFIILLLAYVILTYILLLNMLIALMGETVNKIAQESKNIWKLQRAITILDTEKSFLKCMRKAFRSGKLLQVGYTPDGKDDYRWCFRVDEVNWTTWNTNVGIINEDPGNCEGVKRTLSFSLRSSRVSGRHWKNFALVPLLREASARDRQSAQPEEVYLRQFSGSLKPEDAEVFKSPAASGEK
Outline: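 Antagonism measured as inhibition of capsaicin-evoked (final concentration = EC50, from an 8-point 1 nM–3 μM curve) Fluo-3 calcium signal in stable hVR1-HEK293 cells. Test compounds at 1–5 μM final, 0.5–6 h dark preincubation at room temperature. IC50 = concentration giving 50% reduction versus agonist-only response.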

Row | IC50 | SMILES
1 | ≤ 1 µM | Fc1ccc(-c2cc(N3CCN(c4ncccc4C(F)(F)F)CC3)nc(SCc3ccccc3)n2)cc1Cl [Example 649, 2-(benzylthio)-4-(3-chloro-4-fluorophenyl)-6-{4-[3-(trifluoromethyl)pyridin-2-yl]piperazin-1-yl}pyrimidine]
2 | ≤ 1 µM | O=S(=O)(Cc1ccccc1)c1nc(-c2ccc(F)c(Cl)c2)cc(N2CCN(c3ncccc3C(F)(F)F)CC2)n1 [Example 650, 2-(benzylsulfonyl)-4-(3-chloro-4-fluorophenyl)-6-{4-[3-(trifluoromethyl)pyridin-2-yl]piperazin-1-yl}pyrimidine]
3 | ≤ 1 µM | CC(C)c1nccn1-c1nc(-c2ccc(F)c(Cl)c2)cc(N2CCN(c3ncccc3C(F)(F)F)CC2)n1 [Example 651, 4-(3-chloro-4-fluorophenyl)-2-(2-isopropyl-1H-imidazo-1-yl)-6-{4-[3-(trifluoromethyl)pyridin-2-yl]piperazin-1-yl}pyrimidine]
4 | ≤ 1 µM | CN(C)C(=O)CN1CCN(c2nc(-c3ccc(F)c(Cl)c3)cc(N3CCN(c4ncccc4C(F)(F)F)CC3)n2)CC1 [Example 652, 2-[4-(4-(3-chloro-4-fluorophenyl)-6-{4-[3-(trifluoromethyl)pyridin-2 yl]piperazin-1-yl}pyrimidin-2-yl)piperazin-1-yl]-N,N-dimethylacetamide]
5 | ≤ 1 µM | CNC(=O)C1CCN(c2nc(-c3ccc(F)c(Cl)c3)cc(N3CCN(c4ncccc4C(F)(F)F)CC3)n2)CC1 [Example 653, 1-(4-(3-chloro-4-fluorophenyl)-6-{4-[3-(trifluoromethyl)pyridin-2-yl]piperazin-1-yl}pyrimidin-2-yl)-N-methylpiperidine-4-carboxamide]
6 | ≤ 1 µM | O=C1CN(c2nc(-c3ccc(F)c(Cl)c3)cc(N3CCN(c4ncccc4C(F)(F)F)CC3)n2)CCN1 [Example 654, 4-(4-(3-chloro-4-fluorophenyl)-6-{4-[3-(trifluoromethyl)pyridin-2-yl]piperazin-1-yl}pyrimidin-2-yl)piperazin-2-one]
7 | ≤ 1 µM | CS(=O)(=O)C1CCN(c2nc(-c3ccc(F)c(Cl)c3)cc(N3CCN(c4ncccc4C(F)(F)F)CC3)n2)CC1 [Example 655, 4-(3-chloro-4-fluorophenyl)-2-[4-(methylsulfonyl)piperidin-1-yl]-6-{4-[3-(trifluoromethyl)pyridin-2-yl]piperazin-1-yl}pyrimidine]
8 | ≤ 1 µM | Fc1ccc(-c2cc(N3CCN(c4ncccc4C(F)(F)F)CC3)nc(-c3ncc[nH]3)n2)cc1Cl [Example 656, 4-(3-chloro-4-fluorophenyl)-2-(1H-imidazol-2-yl)-6-{4-[3-(trifluoromethyl)pyridin-2-yl]piperazin-1-yl}pyrimidine]
9 | ≤ 1 µM | CC(=N)N1CCN(c2nc(-c3ccc(F)c(C)c3)cc(N3CCN(c4ncccc4C(F)(F)F)CC3)n2)CC1 [Example 657, 1-[4-(4-(4-fluoro-3-methylphenyl)-6-{4-[3-(trifluoromethyl)pyridin-2-yl]piperazin-1-yl}pyrimidin-2-yl)piperazin-1-yl]ethanimine]
10 | ≤ 1 µM | CCC(CC)Oc1nc(-c2ccc(F)c(Cl)c2)cc(N2CCN(c3ncccc3C(F)(F)F)CC2)n1 [Example 658, 4-(3-chloro-4-fluorophenyl)-2-(1-ethylpropoxy)-6-{4-[3-(trifluoromethyl)pyridin-2-yl]piperazin-1-yl}pyrimidine]
11 | ≤ 1 µM | O=C1CN(c2cc(-c3ccc(F)c(Cl)c3)nc(N3CCOCC3)n2)CCN1c1ccccn1 [Example 659, 4-[6-(3-chloro-4-fluorophenyl)-2-morpholin-4-ylpyrimidin-4-yl]-1-pyridin-2-ylpiperazin-2-one]
12 | ≤ 1 µM | CC(C)N1CC=C(c2nc(-c3ccc(F)c(Cl)c3)cc(N3CCN(c4ncccc4C(F)(F)F)CC3)n2)CC1 [Example 660, 4-(3-chloro-4-fluorophenyl)-2-(1-isopropyl-1,2,3,6-tetrahydropyridin-4-yl)-6-{4-[3-(trifluoromethyl)pyridin-2-yl]piperazin-1-yl}pyrimidine]
13 | ≤ 1 µM | Cc1cccnc1N1CCN(c2cc(-c3ccc(F)c(Cl)c3)nc(N3CCOCC3)n2)CC1=O [Example 661, 4-[6-(3-chloro-4-fluorophenyl)-2-morpholin-4-ylpyrimidin-4-yl]-1-(3-methylpyridin-2-yl)piperazin-2-one]
14 | ≤ 1 µM | Cn1ccnc1-c1nc(-c2ccc(F)c(Cl)c2)cc(N2CCN(c3ncccc3C(F)(F)F)CC2)n1 [Example 662, 4-(3-chloro-4-fluorophenyl)-2-(1-methyl-1H-imidazol-2-yl)-6-{4-[3-(trifluoromethyl)pyridin-2-yl]piperazin-1-yl}pyrimidine]
15 | ≤ 1 µM | CC(=N)N1CCN(c2nc(-c3ccc(F)c(Cl)c3)cc(N3CCN(c4ncccc4C(F)(F)F)CC3)n2)CC1 [Example 663, 1-[4-(4-(3-chloro-4-fluorophenyl)-6-{4-[3-(trifluoromethyl)pyridin-2-yl]piperazin-1-yl}pyrimidin-2-yl)piperazin-1-yl]ethanimine]
16 | ≤ 1 µM | Fc1ccc(-c2cc(N3CCN(c4ncccc4C(F)(F)F)CC3)nc(N3CCC[C@H]3CN3CCCC3)n2)cc1Cl [Example 664, 4-(3-chloro-4-fluorophenyl)-2-[(2S)-2-(pyrrolidin-1-ylmethyl)pyrrolidin-1-yl]-6-{4-[3-(trifluoromethyl)pyridin-2-yl]piperazin-1-yl}pyrimidine]

Row | IC50 | SMILES
17 | ≤ 1 µM | Fc1ccc(-c2cc(N3CCN(c4ncccc4C(F)(F)F)CC3)nc(N3CCC(CCN4CCCC4)CC3)n2)cc1Cl [Example 665, 4-(3-chloro-4-fluorophenyl)-2-[4-(2-pyrrolidin-1-ylethyl)piperidin-1-yl]-6-{4-[3-(trifluoromethyl)pyridin-2-yl]piperazin-1-yl}pyrimidine]
18 | ≤ 1 µM | Fc1ccc(-c2cc(N3CCN(c4ncccc4C(F)(F)F)CC3)nc(N3CCC(N4CCCC4)CC3)n2)cc1Cl [Example 666, 4-(3-chloro-4-fluorophenyl)-2-(4-pyrrolidin-1-ylpiperidin-1-yl)-6-{4-[3-(trifluoromethyl)pyridin-2-yl]piperazin-1-yl}pyrimidine]
19 | ≤ 1 µM | CCN1CCN(c2nc(-c3ccc(F)c(C)c3)cc(N3CCN(c4ncccc4C(F)(F)F)CC3)n2)CC1 [Example 667, 2-(4-ethylpiperazin-1-yl)-4-(4-fluoro-3-methylphenyl)-6-{4-[3-(trifluoromethyl)pyridin-2-yl]piperazin-1-yl}pyrimidine]
20 | ≤ 1 µM | O=C1CCCN1c1nc(-c2ccc(F)c(Cl)c2)cc(N2CCN(c3ncccc3C(F)(F)F)CC2)n1 [Example 668, 1-(4-(3-chloro-4-fluorophenyl)-6-{4-[3-(trifluoromethyl)pyridin-2-yl]piperazin-1-yl}pyrimidin-2-yl)pyrrolidin-2-one]
21 | ≤ 1 µM | CC1CCC(C)N1c1nc(-c2ccc(F)c(Cl)c2)cc(N2CCN(c3ncccc3C(F)(F)F)CC2)n1 (stereo not shown) [Example 669, 4-(3-chloro-4-fluorophenyl)-2-(2,5-dimethylpyrrolidin-1-yl)-6-{4-[3-(trifluoromethyl)pyridin-2-yl]piperazin-1-yl}pyrimidine]
22 | ≤ 1 µM | [O-][n+]1ccc(-c2nc(-c3ccc(F)c(Cl)c3)cc(N3CCN(c4ncccc4C(F)(F)F)CC3)n2)cc1 [Example 670]
23 | ≤ 1 µM | CC(=O)c1nc(-c2ccc(F)c(Cl)c2)cc(N2CCN(c3ncccc3C(F)(F)F)CC2)n1 [Example 671, 1-(4-(3-chloro-4-fluorophenyl)-6-{4-[3-(trifluoromethyl)pyridin-2-yl]piperazin-1-yl}pyrimidin-2-yl)ethanone]
24 | ≤ 1 µM | CC(=O)c1nc(-c2ccc(F)c(C)c2)cc(N2CCN(c3ncccc3C(F)(F)F)CC2)n1 [Example 672, 1-(4-(4-fluoro-3-methylphenyl)-6-{4-[3-(trifluoromethyl)pyridin-2-yl]piperazin-1-yl}pyrimidin-2-yl)ethanone]
25 | ≤ 1 µM | Fc1ccc(-c2cc(N3CCN(c4ncccc4C(F)(F)F)CC3)nc(N3CCN(c4ncccc4C(F)(F)F)CC3)n2)cc1Cl [Example 673, 4-(3-chloro-4-fluorophenyl)-2,6-bis{4-[3-(trifluoromethyl)pyridin-2-yl]piperazin-1-yl}pyrimidine]
26 | ≤ 1 µM | Cc1cc(-c2cc(N3CCN(c4ncccc4C(F)(F)F)CC3)nc(N3CCCC3)n2)ccc1F [Example 674, 4-(4-fluoro-3-methylphenyl)-2-pyrrolidin-1-yl-6-{4-[3-(trifluoromethyl)pyridin-2-yl]piperazin-1-yl}pyrimidine]
27 | ≤ 1 µM | Cc1cc(-c2cc(N3CCN(c4ncccc4C(F)(F)F)CC3)nc(N3CCCCC3)n2)ccc1F [Example 675, 4-(4-fluoro-3-methylphenyl)-2-piperidin-1-yl-6-{4-[3-(trifluoromethyl)pyridin-2-yl]piperazin-1-yl}pyrimidine]
28 | ≤ 1 µM | Cc1cc(-c2cc(N3CCN(c4ncccc4C(F)(F)F)CC3)nc(N3CCCC3C)n2)ccc1F (stereo not shown) [Example 676, 4-(4-fluoro-3-methylphenyl)-2-(2-methylpyrrolidin-1-yl)-6-{4-[3-(trifluoromethyl)pyridin-2-yl]piperazin-1-yl}pyrimidine]
29 | ≤ 1 µM | Cc1cc(-c2cc(N3CCN(c4ncccc4C(F)(F)F)CC3)nc(N3C(C)CCC3C)n2)ccc1F (stereo not shown) [Example 677, 2-(2,5-dimethylpyrrolidin-1-yl)-4-(4-fluoro-3-methylphenyl)-6-{4-[3-(trifluoromethyl)pyridin-2-yl]piperazin-1-yl}pyrimidine]
30 | ≤ 1 µM | Cc1cc(-c2cc(N3CCN(c4ncccc4C(F)(F)F)CC3)nc(N(CCO)CCO)n2)ccc1F [Example 678]
31 | ≤ 1 µM | CC(=O)N(C)c1nc(-c2ccc(F)c(Cl)c2)cc(N2CCN(c3ncccc3C(F)(F)F)CC2)n1 [Example 679, N-(4-(3-chloro-4-fluorophenyl)-6-{4-[3-(trifluoromethyl)pyridin-2-yl]piperazin-1-yl}pyrimidin-2-yl)-N-methylacetamide]
